Values quoted from earlier work in patent US20080213374A1, “NANOPARTICULATE SORAFENIB FORMULATIONS” (Elan Pharma International Limited, priority 2006, published 2008).

Compound | solubility in water | solubility in PEG 400 (PEG 400) | solubility in aqueous media (aqueous media) | solubility in ethanol (ethanol)
CNC(=O)c1cc(Oc2ccc(NC(=O)Nc3ccc(Cl)c(C(F)(F)F)c3)cc2)ccn1 [Sorafenib] | practically insoluble |  |  | 
CNC(=O)c1cc(Oc2ccc(NC(=O)Nc3ccc(Cl)c(C(F)(F)F)c3)cc2)ccn1.Cc1ccc(S(=O)(=O)O)cc1 [Sorafenib tosylate, 4-(4-{3-[4-Chloro-3-(trifluoromethyl)phenyl]ureido}phenoxy)-N2-methylpyridine-2-carboxamide 4-methylbenzenesulfonate] | practically insoluble | soluble | practically insoluble | slightly soluble
